≈ marks a conversion by molar mass, not a printed value. Read-outs that look alike come from different tables or passages of the source.
Experiments:
Assay in all cases: In vitro determination of minimum inhibitory concentration (MIC), serial dilution
Type in all cases: cell-based
[1] = test system: Absidia ramosa; conditions: pH 6.0, 22° C., 14 days; for MIC: Lichtheimia ramosa, 336 h, pH 6, Absidia ramosa
Protocol: (§1) The antimycotic activities of the compounds were measured by in vitro determination of the minimum inhibitory concentration (MIC) for yeasts, molds and dermatophytes.
(§2) 6 dermatophytes, 2 yeasts and 4 molds were used for testing with fungi, as follows:
(§3) The minimum inhibitory concentration (MIC) was determined in serial dilution tests in test tubes. The volume of the liquid nutrient medium in each test tube was 4.5 ml.
(§4) The substances were dissolved in DMSO and diluted with sterile distilled water to 10 concentrations (100, 50, 25, 12.5, 6.25, 3.12, 1.56, 0.78, 0.39 and 0.19 μg/ml). 0.5 ml of each of these dilution steps was added to liquid nutrient medium. Thus, a constant concentration of solvent in all the nutrient media was ensured, irrespective of the active compound concentration.
(§5) A comparison solution which contained only the solvent in appropriate concentration was included when carrying out each of the tests.
(§6) The individual strains were maintained on Sabouraud/beerwort agar slants and, before they were used in a test, they underwent a passage on a modified Sabouraud liquid nutrient medium. The strains were then harvested, washed and converted into a suspension of McFaerland 3 in the case of yeasts and molds and of McFaerland 4-5 in the case of dermatophytes.
(§7) The amount of material inoculated (inoculum) was 100 μl/test tube (inoculated densities: yeasts about 10^3 /ml, molds about 10^4 /ml, dermatophytes about 10^4 /ml). The pH of the liquid nutrient medium was 6.0. After inoculation had taken place the fungi were incubated at 22° C. for 14 days.
(§8) The MIC was then determined. The concentration step at which growth was no longer visible on macroscopic inspection was used for the determination of the MIC. The comparison substance used was 1-(2-(2,4-dichlorophenyl)-2-(2,4-dichlorophenylmethoxy)ethyl)-1H-imidazole(compound A).

[2] = test system: Aspergillus fumigatus
Protocol: as §1, §2, §3, §4, §5, §6, §7, §8

[3] = test system: Candida albicans; conditions: 336 h
Protocol: as §1, §2, §3, §4, §5, §6, §7, §8

[4] = test system: Candida tropicalis; conditions: 336 h
Protocol: as §1, §2, §3, §4, §5, §6, §7, §8

[5] = test system: Epidermophyton floccosum; conditions: pH 6.0, 22° C., 14 days; for MIC: 336 h, pH 6, Epidermophyton floccosum
Protocol: as §1, §2, §3, §4, §5, §6, §7, §8

[6] = test system: Microsporum canis; conditions: 336 h, pH 6, Microsporum canis, pH 6.0, 22° C., 14 days
Protocol: as §1, §2, §3, §4, §5, §6, §7, §8

[7] = test system: Microsporum gypseum; conditions: Nannizzia gypsea, 336 h
Protocol: as §1, §2, §3, §4, §5, §6, §7, §8

[8] = test system: Mucor mucedo minus; conditions: pH 6.0, 22° C., 14 days; for MIC: Mucor mucedo, 336 h, pH 6, Mucor mucedo minus
Protocol: as §1, §2, §3, §4, §5, §6, §7, §8

[9] = test system: Mucor mucedo plus; conditions: pH 6.0, 22° C., 14 days; for MIC: Mucor mucedo, 336 h, pH 6, Mucor mucedo plus
Protocol: as §1, §2, §3, §4, §5, §6, §7, §8

[10] = test system: Trichophyton mentagrophytes; conditions: pH 6.0, 22° C., 14 days; for MIC: 336 h, pH 6, Trichophyton mentagrophytes
Protocol: as §1, §2, §3, §4, §5, §6, §7, §8

[11] = test system: Trichophyton rubrum; conditions: pH 6.0, 22° C., 14 days; for MIC: 336 h, pH 6, Trichophyton rubrum
Protocol: as §1, §2, §3, §4, §5, §6, §7, §8

[12] = test system: Trichophyton verrucosum; conditions: pH 6.0, 22° C., 14 days; for MIC: 336 h, pH 6, Trichophyton verrucosum
Protocol: as §1, §2, §3, §4, §5, §6, §7, §8

[13] = pH 6, Candida albicans, pH 6.0, 22° C., 14 days, read-out: MIC C.alb
[14] = pH 6, Candida tropicalis, pH 6.0, 22° C., 14 days, read-out: MIC C.trop
[15] = pH 6, Microsporum gypseum, pH 6.0, 22° C., 14 days, read-out: MIC Mi.gyp

MIC [1]	MIC Asp.fu. ([2]; 20160 min, pH 6)	MIC [3, 13]	MIC [4, 14]	MIC [5]	MIC [6]	MIC [7, 15]	MIC [8]	MIC [9]	MIC [10]	MIC [11]	MIC [12]	Compound	other results
6.25 µg/mL (≈ 13.9 µM)	6,25 μg/ml	3.12 µg/mL (≈ 6.92 µM)	12.5 µg/mL (≈ 27.7 µM)	6.25 µg/mL (≈ 13.9 µM)	6.25 µg/mL (≈ 13.9 µM)	6.25 µg/mL (≈ 13.9 µM)	25 µg/mL (≈ 55.5 µM)	12.5 µg/mL	6.25 µg/mL (≈ 13.9 µM)	3.12 µg/mL (≈ 6.92 µM)	6.25 µg/mL (≈ 13.9 µM)	Clc1ccc(SCCCNC(Cn2ccnc2)c2ccc(Br)cc2)cc1 (stereo not drawn) [Compound 100]	–
50 µg/mL (≈ 103 µM)	1,56 μg/ml	6.25 µg/mL (≈ 12.9 µM)	3.12 µg/mL (≈ 6.44 µM)	0.78 µg/mL (≈ 1.61 µM)	3.12 µg/mL (≈ 6.44 µM)	3.12 µg/mL (≈ 6.44 µM)	3.12 µg/mL (≈ 6.44 µM)	3.12 µg/mL	1.56 µg/mL (≈ 3.22 µM)	3.12 µg/mL (≈ 6.44 µM)	1.56 µg/mL (≈ 3.22 µM)	CN(CCCOc1ccc(Br)cc1)C(Cn1cncn1)c1ccc(Cl)cc1Cl (stereo not drawn) [Compound 62]	–
6.25 µg/mL (≈ 14.6 µM)	6,25 μg/ml	3.12 µg/mL (≈ 7.31 µM)	3.12 µg/mL (≈ 7.31 µM)	0.78 µg/mL (≈ 1.83 µM)	0.78 µg/mL (≈ 1.83 µM)	0.78 µg/mL (≈ 1.83 µM)	3.12 µg/mL (≈ 7.31 µM)	3.12 µg/mL	0.78 µg/mL (≈ 1.83 µM)	0.78 µg/mL (≈ 1.83 µM)	0.78 µg/mL (≈ 1.83 µM)	Clc1ccc(SCCNC(Cn2ccnc2)c2ccc(Cl)cc2Cl)cc1 (stereo not drawn) [Compound 34]	–
–	0,39 μg/ml	3.12 µg/mL (≈ 6.43 µM)	3.12 µg/mL (≈ 6.43 µM)	–	0.78 µg/mL (≈ 1.61 µM)	0.39 µg/mL (≈ 0.804 µM)	–	–	–	–	–	Clc1ccc(C(Cn2ccnc2)NCCCSc2ccc(Br)cc2)c(Cl)c1 (stereo not drawn) [Compound 105]	MIC Abs.ra. ([1]; Absidia ramosa): 12,5 μg/ml; MIC Ep.flo [5]: 0,10 μg/ml; MIC Mu.mu- ([8]; Mucor mucedo minus): 3,12 μg/ml; MIC Mu.mu+ ([9]; Mucor mucedo plus): 3,12 μg/ml; MIC Tri.me. [10]: 0,10 μg/ml; MIC Tri.ru. [11]: 0,10 μg/ml; MIC Tri.ve. [12]: 0,10 μg/ml
12.5 µg/mL (≈ 26.5 µM)	6,25 μg/ml	6.25 µg/mL (≈ 13.3 µM)	6.25 µg/mL (≈ 13.3 µM)	1.56 µg/mL (≈ 3.31 µM)	6.25 µg/mL (≈ 13.3 µM)	0.78 µg/mL (≈ 1.66 µM)	6.25 µg/mL (≈ 13.3 µM)	6.25 µg/mL	1.56 µg/mL (≈ 3.31 µM)	1.56 µg/mL (≈ 3.31 µM)	1.56 µg/mL (≈ 3.31 µM)	Clc1ccc(C(Cn2ccnc2)NCCSc2ccc(Br)cc2)c(Cl)c1 (stereo not drawn) [Compound 37]	–
25 µg/mL (≈ 58.4 µM)	25,0 μg/ml	12.5 µg/mL (≈ 29.2 µM)	6.25 µg/mL (≈ 14.6 µM)	3.12 µg/mL (≈ 7.29 µM)	6.25 µg/mL (≈ 14.6 µM)	6.25 µg/mL (≈ 14.6 µM)	3.12 µg/mL (≈ 7.29 µM)	6.25 µg/mL	25 µg/mL (≈ 58.4 µM)	3.12 µg/mL (≈ 7.29 µM)	3.12 µg/mL (≈ 7.29 µM)	Clc1ccc(SCCNC(Cn2cncn2)c2ccc(Cl)cc2Cl)cc1 (stereo not drawn) [Compound 33]	–
3.12 µg/mL (≈ 5.88 µM)	3,12 μg/ml	3.12 µg/mL (≈ 5.88 µM)	1.56 µg/mL (≈ 2.94 µM)	3.12 µg/mL (≈ 5.88 µM)	1.56 µg/mL (≈ 2.94 µM)	3.12 µg/mL (≈ 5.88 µM)	6.25 µg/mL (≈ 11.8 µM)	6.25 µg/mL	6.25 µg/mL (≈ 11.8 µM)	0.78 µg/mL (≈ 1.47 µM)	1.56 µg/mL (≈ 2.94 µM)	CN(CCCOc1ccc(I)cc1)C(Cn1ccnc1)c1ccc(Cl)cc1Cl (stereo not drawn) [Compound 65]	–
6.25 µg/mL (≈ 13.7 µM)	0,78 μg/ml	3.12 µg/mL (≈ 6.84 µM)	6.25 µg/mL (≈ 13.7 µM)	3.12 µg/mL (≈ 6.84 µM)	0.78 µg/mL (≈ 1.71 µM)	3.12 µg/mL (≈ 6.84 µM)	3.12 µg/mL (≈ 6.84 µM)	6.25 µg/mL	3.12 µg/mL (≈ 6.84 µM)	1.56 µg/mL (≈ 3.42 µM)	1.56 µg/mL (≈ 3.42 µM)	Clc1ccc(C(Cn2ccnc2)NCCCSc2ccc3ccccc3c2)c(Cl)c1 (stereo not drawn) [Compound 114]	–
100 µg/mL (≈ 212 µM)	100 µg/mL (≈ 212 µM)	25 µg/mL (≈ 52.9 µM)	12.5 µg/mL (≈ 26.5 µM)	12.5 µg/mL (≈ 26.5 µM)	100 µg/mL (≈ 212 µM)	6.25 µg/mL (≈ 13.2 µM)	50 µg/mL (≈ 106 µM)	12.5 µg/mL	25 µg/mL (≈ 52.9 µM)	6.25 µg/mL (≈ 13.2 µM)	12.5 µg/mL (≈ 26.5 µM)	Clc1ccc(C(Cn2cncn2)NCCSc2ccc(Br)cc2)c(Cl)c1 (stereo not drawn) [Compound 36]	–
100 µg/mL (≈ 226 µM)	12,5 μg/ml	12.5 µg/mL (≈ 28.3 µM)	12.5 µg/mL (≈ 28.3 µM)	0.78 µg/mL (≈ 1.77 µM)	6.25 µg/mL (≈ 14.1 µM)	3.12 µg/mL (≈ 7.06 µM)	3.12 µg/mL (≈ 7.06 µM)	3.12 µg/mL	3.12 µg/mL (≈ 7.06 µM)	1.56 µg/mL (≈ 3.53 µM)	3.12 µg/mL (≈ 7.06 µM)	Clc1ccc(SCCCNC(Cn2cncn2)c2ccc(Cl)cc2Cl)cc1 (stereo not drawn) [Compound 95]	–
6.25 µg/mL (≈ 14.2 µM)	6,25 μg/ml	3.12 µg/mL (≈ 7.11 µM)	1.56 µg/mL (≈ 3.56 µM)	3.12 µg/mL (≈ 7.11 µM)	1.56 µg/mL (≈ 3.56 µM)	3.12 µg/mL (≈ 7.11 µM)	1.56 µg/mL (≈ 3.56 µM)	3.12 µg/mL	6.25 µg/mL (≈ 14.2 µM)	0.78 µg/mL (≈ 1.78 µM)	1.56 µg/mL (≈ 3.56 µM)	CN(CCCOc1ccc(Cl)cc1)C(Cn1ccnc1)c1ccc(Cl)cc1Cl (stereo not drawn) [Compound 60]	–

Compound	MIC [1]	MIC Asp.fu. ([2]; 20160 min, pH 6)	MIC [3, 13]	MIC [4, 14]	MIC [5]	MIC [6]	MIC [7, 15]	MIC [8]	MIC [9]	MIC [10]	MIC [11]	MIC [12]	other results
Clc1ccc(COC(Cn2ccnc2)c2ccc(Cl)cc2Cl)c(Cl)c1 (stereo not drawn) [A, 1-(2-(2,4-dichlorophenyl)-2-(2,4-dichlorophenylmethoxy)ethyl)-1H-imidazole, reference compound]	12.5 µg/mL (≈ 30 µM)	–	–	–	1.56 µg/mL (≈ 3.75 µM)	6.25 µg/mL (≈ 15 µM)	–	12.5 µg/mL (≈ 30 µM)	12.5 µg/mL	1.56 µg/mL (≈ 3.75 µM)	6.25 µg/mL (≈ 15 µM)	6.25 µg/mL (≈ 15 µM)	MIC Asp.fu. ([2]; Aspergillus fumigatus, pH 6.0, 22° C., 14 days): 3,12 μg/ml; MIC ([3]; pH 6, read-out: MIC C.alb): 12.5 µg/mL (≈ 30 µM); MIC ([4]; pH 6, read-out: MIC C.trop): 12.5 µg/mL (≈ 30 µM); MIC ([7]; pH 6, read-out: MIC Mi.gyp): 3.12 µg/mL (≈ 7.5 µM)
Clc1ccc(SCCCNC(Cn2ccnc2)c2ccc(Cl)cc2Cl)cc1 (stereo not drawn) [Compound 2, 1-(2-(2,4-dichlorophenyl)-2-(3-(4-chlorophenylthio)propylamino)ethyl)-1H-imidazole]	3.12 µg/mL (≈ 7.08 µM)	3,12 μg/ml	3.12 µg/mL (≈ 7.08 µM)	1.56 µg/mL (≈ 3.54 µM)	6.25 µg/mL (≈ 14.2 µM)	1.56 µg/mL (≈ 3.54 µM)	3.12 µg/mL (≈ 7.08 µM)	25 µg/mL (≈ 56.7 µM)	12.5 µg/mL	12.5 µg/mL (≈ 28.4 µM)	0.19 µg/mL (≈ 0.431 µM)	0.39 µg/mL (≈ 0.885 µM)	–

Source: patent publication US4812465A, “Triazole derivatives for use as antimycotic agents” (CL Pharma Aktiengesellschaft, priority 1986, dated 1989)
